Experiments:
[1] = target: T1, 20S Human Erythrocyte Proteasome (HEP) (Homo sapiens, UniProt P20618+P28074); test: Chymotrypsin-like activity of 20S Human Erythrocyte Proteasome (HEP), IC50 determination; format: biochemical; details: assay of Example C, inhibition of HEP
T1 construct: 20S Human Erythrocyte Proteasome (HEP), purchased from Immatics Biotechnologies Inc; purchased Immatics Biotechnologies Inc., Tübingen, Germany; host or cells: human erythrocytes (natural source)
Summary of the method: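 20S proteasome at 0.2 μg/mL (about 0.6 nM catalytic sites) in 20 mM Tris with 0.04% SDS, preincubated 15 min at 37° C with inhibitor before Suc-LLVY-AMC (100 μM final). AMC fluorescence read in the linear range; triplicates, IC50 from concentration series.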

[2] = target: T2, proteasome in Molt-4 cells (human leukemia) (Homo sapiens, UniProt P20618+P28074); format: cell-based; details: assay of Example E, inhibition of MOLT4; read-out: MOLT4 (EC50)
T2 sequence (P28074 60-263): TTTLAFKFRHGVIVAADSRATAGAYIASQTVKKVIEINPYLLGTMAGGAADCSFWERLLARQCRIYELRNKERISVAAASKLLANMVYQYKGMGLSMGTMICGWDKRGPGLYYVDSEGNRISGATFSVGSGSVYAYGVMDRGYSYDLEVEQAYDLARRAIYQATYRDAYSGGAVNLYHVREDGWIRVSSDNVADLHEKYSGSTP
T2 sequence (P20618 29-241): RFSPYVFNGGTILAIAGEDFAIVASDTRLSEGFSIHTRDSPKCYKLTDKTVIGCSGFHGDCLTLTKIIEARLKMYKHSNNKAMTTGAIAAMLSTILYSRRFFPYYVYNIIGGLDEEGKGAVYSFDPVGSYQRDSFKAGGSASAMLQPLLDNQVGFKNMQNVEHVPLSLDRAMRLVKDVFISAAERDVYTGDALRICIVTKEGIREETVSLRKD
Summary of the method: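 Intact Molt-4 cells (6×10^6 cells/mL) in HEPES-buffered saline were preincubated with inhibitor 15 min at 37 °C, then given cell-permeable MeOSuc-FLF-AFC at 25 μM final.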

IC50 [1] [nM] | EC50 [2] [nM] | Structure (SMILES)
< 10 | 200 to 2000 | CCCCCCCOc1ccc(NC(=O)N[C@@H](CCCNC(=N)N[N+](=O)[O-])C(=O)N[C@@H](CC(C)C)B(O)O)cc1 [E.2.79, Boronic acid, [(1R)-1-[[(2S)-5-[[imino(nitroamino)methyl]amino]-2-[3-[4-(heptyloxy)phenyl]-ureido]-1-oxopentyl]amino]-3-methylbutyl]]
< 10 | 200 to 2000 | CCOC(=O)/C=C/C(=O)N[C@@H](CCCNC(=N)N[N+](=O)[O-])C(=O)N[C@@H](CC(C)C)B1O[C@@H]2C[C@@H]3C[C@@H](C3(C)C)[C@]2(C)O1 [D.1.8, (E)-3-(Ethoxycarbonyl)acrylamide,N-[(1S)-1-[[[(1R)-1-[(3aS,4S,6S,7aR)-hexahydro-3a,5,5-trimethyl-4,6-methano-1,3,2-benzodioxaborol-2-yl]-3-methylbutyl]amino]carbonyl]-4-[[imino(nitroamino)methyl]amino]butyl]]
< 10 | 2000 to 10000 | CCCCC(C(=O)N[C@@H](CCCNC(=N)N[N+](=O)[O-])C(=O)N[C@@H](CC(C)C)B(O)O)C1CCCC1 (mixture of isomers) [E.2.59, Boronic acid, [(1R)-1-[[(2S)-5-[[imino(nitroamino)methyl]amino]-2-[[(RS)-2-cyclopentylhexanoyl]amino]-1-oxopentyl]amino]-3-methylbutyl]]
< 10 | > 10000 | CC(C)C[C@H](NC(=O)[C@H](CCCNC(=N)N[N+](=O)[O-])NC(=O)c1cccc(F)c1F)B(O)O [E.2.11, Boronic acid, [(1R)-1-[[(2S)-5-[[imino(nitroamino)methyl]amino]-2-[(2,3-difluorobenzoyl)amino]-1-oxopentyl]amino]-3-methylbutyl]]
< 10 | 2000 to 10000 | COc1ccccc1/C=C/C(=O)N[C@@H](CCCNC(=N)N[N+](=O)[O-])C(=O)N[C@@H](CC(C)C)B(O)O [D.7.1, Boronic acid, [(1R)-1-[[(2S)-5-[[imino(nitroamino)methyl]amino]-2-[[(2E)-3-(2-methoxyphenyl)-1-oxoprop-2-enyl]amino]-1-oxopentyl]amino]-3-methylbutyl]]
< 10 | > 10000 | Cc1ccccc1C(=O)N[C@@H](CCCNC(=N)N[N+](=O)[O-])C(=O)N[C@@H](CC(C)C)B(O)O [E.2.15, Boronic acid, [(1R)-1-[[(2S)-5-[[imino(nitroamino)methyl]amino]-2-[(2-methylbenzoyl)amino]-1-oxopentyl]amino]-3-methylbutyl]]
< 10 | 200 to 2000 | CCCCc1ccc(C(=O)N[C@@H](CCCNC(=N)N[N+](=O)[O-])C(=O)N[C@@H](CC(C)C)B(O)O)cc1 [E.1.3, Boronic acid, [(1R)-1-[[(2S)-5-[[imino(nitroamino)methyl]amino]-2-[(4-butyl-benzoyl)amino]-1-oxopentyl]amino]-3-methylbutyl]]
< 10 | 2000 to 10000 | CC(C)C[C@H](NC(=O)[C@H](CCCNC(=N)N[N+](=O)[O-])NC(=O)C1CCC(C(C)(C)C)CC1)B(O)O (stereo partly drawn) [E.2.5, Boronic acid, [(1R)-1-[[(2S)-5-[[imino(nitroamino)methyl]amino]-2-[[4-(1,1-Dimethylethyl)cyclohexanecarbonyl]amino]-1-oxopentyl]amino]-3-methylbutyl]]
< 100 | < 200 | CCCCc1ccc(C(=O)N[C@H](C(=O)N[C@@H](CC(C)C)B(O)O)[C@@H](C)O)nc1 [E.4.2, Boronic acid, [(1R)-1-[[(2S,3R)-3-hydroxy-2-[(5-butyl-pyridine-2-carbonyl)amino]-1-oxobutyl]amino]-3-methylbutyl]]
< 10 | 2000 to 10000 | CC(C)C[C@H](NC(=O)[C@H](CCCNC(=N)N[N+](=O)[O-])NC(=O)c1ccc(-n2cccc2)cc1)B(O)O [D.7.27, Boronic acid, [(1R)-1-[[(2S)-5-[[imino(nitroamino)methyl]amino]-2-[(4-pyrrol-1-ylbenzoyl)amino]-1-oxopentyl]amino]-3-methylbutyl]]

Source: US8546608B2, “Proteasome inhibitors and methods of using the same” (Cephalon, Inc., priority 2003, dated 2013)
